In PubChem BioAssay (NCI):
Where “and” joins values, the source holds several entries; their conditions need not be identical. Equal entries are not always repeated.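 Dose response: 5 concentrations. Exposure: 48 h. Format: 96-well plates. Endpoint: linear interpolation; highest concentration if not reached. Here, GI50 denotes the concentration required for 50% inhibition of growth. TGI is the concentration that stops growth completely.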

Tests used:
Assay in all cases: DTP human tumour cell line panel, 48 h
A549 NSCLC = tested on: A549 NSCLC
ACHN renal = tested on: ACHN renal
HCT-116 colon = tested on: HCT-116 colon
HL-60(TB) leukemia = tested on: HL-60(TB) leukemia
M14 melanoma = tested on: M14 melanoma
NCI-H522 lung = tested on: NCI-H522 lung
OVCAR-4 ovarian = tested on: OVCAR-4 ovarian
SF-295 CNS = tested on: SF-295 CNS

| SMILES | TGI (A549 NSCLC) [µM] | TGI (ACHN renal) [µM] | TGI (HCT-116 colon) [µM] | TGI (HL-60(TB) leukemia) | TGI (M14 melanoma) [µM] | TGI (NCI-H522 lung) | TGI (OVCAR-4 ovarian) [µM] | TGI (SF-295 CNS) [µM] | GI50 (A549 NSCLC) | GI50 (ACHN renal) [µM] | GI50 (HL-60(TB) leukemia) | GI50 (M14 melanoma) | GI50 (NCI-H522 lung) | GI50 (SF-295 CNS) | GI50 (HCT-116 colon) | GI50 (OVCAR-4 ovarian) |
| --- | --- | --- | --- | --- | --- | --- | --- | --- | --- | --- | --- | --- | --- | --- | --- | --- |
| C#CC1(OC(C)=O)CCC2C3CC=C4C=C(OC(C)=O)CCC4(C)C3CCC21C (configuration not stated) | > 100 | 70.7 | 44.3 | > 100 µM | 70.3 | 34.9 µM | 72.2 | 62 | – | – | – | – | – | – | – | – |
| Cc1cc(=O)oc2c(C)c(O)ccc12 | > 100 | > 100 | > 100 | > 100 µM | > 100 | > 100 µM | > 100 | > 100 | – | – | – | – | – | – | – | – |
| O=S(=O)(NCCCNc1nccc(-c2c(-c3ccc(F)c(O)c3)nc3sccn23)n1)c1ccc(F)cc1 | 47.1 | 8.86 | – | 5.26 µM | 3.14 | 6.04 µM | – | 5.27 | 3.02 µM | 2.24 | 1860 nM | 48.1 nM | 1930 nM | 2190 nM | – | – |
| COc1cccc(/C=C/[N+](=O)[O-])c1 | 25.4 | 6.06 | 3.31 | 5.77 µM | 4.63 | 23.5 µM | 36.9 | 13.4 | 5.06 µM | 2.49 | 2310 nM | 2010 nM | 11100 nM | 3070 nM | 1490 nM | 15.5 µM |
| O=C1NC(=O)C(c2ccccc2Cl)=C1Nc1cc(Cl)c(O)c(Cl)c1 | > 25 | > 25 | > 25 | > 25 µM | > 25 | > 25 µM | > 25 | > 25 | > 25 µM | > 23.7 | 9750 nM | > 19500 nM | 8780 nM | > 25000 nM | 13600 nM | 13.7 µM |
| COc1ccc(/C(COc2ccc3c(=O)c(-c4ccccc4)coc3c2)=N\O)cc1 | > 83.6 | 34 | 44.6 | 2.2 µM | 23.8 | 20.6 µM | > 100 | 25.5 | 14.8 µM | 11.3 | 119 nM | 8490 nM | 4650 nM | 2590 nM | 18300 nM | 16.1 µM |
| C=C(CN1CCN(c2cccc(C(F)(F)F)n2)CC1)c1ccc(C(=O)Nc2ccccc2N)cc1 | > 100 | > 100 | > 100 | 1 µM and 2.13 µM | > 100 | > 100 µM and 38.1 µM | > 100 | – | 3.33 µM and 0.39 µM | – | 322 nM and 297 nM | 966 nM and 436 nM | 1110 nM and 896 nM | 387 nM and 191 nM | 537 nM and 402 nM | 8.37 µM and 1.41 µM |
| O=c1ccs[nH]1 | 41.4 | 17.8 | 38.3 | 25 µM | 26.2 | 1.75 µM | 32.5 | 54.2 | – | – | – | – | – | – | – | – |
| c1cc(N2CCCN(c3ccc(C4=NCCCN4)cc3)CC2)ccc1C1=NCCCN1 | > 100 | > 100 | > 100 | > 100 µM | > 100 | > 100 µM | > 100 | > 100 | 59.6 µM | > 100 | > 100000 nM | > 100000 nM | > 100000 nM | 51100 nM | > 100000 nM | > 100 µM |
| Cc1cc(O)cc2c1[C@]1(C)CCC3C(C)(C)CCC[C@]3(C)[C@H]1C2 (some centres not stated) | 42.1 | 33.3 | 33 | > 100 µM | 37.6 | 38.9 µM | 33.8 | 36 | 22.7 µM | 19.1 | 32400 nM | 21600 nM | 20800 nM | 20300 nM | 19000 nM | 17.5 µM |
| C=C(NC(=O)C(=C)NC(=O)c1csc(C2=NC3c4csc(n4)C4NC(=O)c5csc(n5)C(C(C)(O)C(C)O)NC(=O)C5CSC(=N5)C(=CC)NC(=O)C(C(C)O)NC(=O)c5csc(n5)C3(CC2)NC(=O)C(C)NC(=O)C(=C)NC(=O)C(C)NC(=O)C(C(C)CC)NC2C=Cc3c(C(C)O)cc(nc3C2O)C(=O)OC4C)n1)C(N)=O (configuration not stated) | > 100 | > 100 | 4.09 | 31.7 µM | 12.7 | 4.76 µM | > 100 | 66.9 | 57.3 µM | 8.25 | 5130 nM | 3490 nM | 2070 nM | 21200 nM | 1740 nM | 9.45 µM |
| CC(C)C[C@H](NC(=O)Cn1ccc(NCc2ccccc2)cc1=O)B(O)O | > 100 | > 100 | 3.66 | 10.7 µM | 7.08 | 3.08 µM | > 100 | 15.3 | 5.15 µM | 0.427 | 439 nM | 1350 nM | 691 nM | 2620 nM | 576 nM | 4.59 µM |
